Data published in patent publication US20230183245A1, “IMIDAZO-PYRIMIDONE COMPOUNDS AS PESTICIDES” (BASF SE, priority 2020, published 2023).
Read-outs that look alike come from different tables or passages of the source.

Key:
Assay type in all cases: in vivo
[1] = tested on: Aedes aegypti; test: whole plant or invertebrate; details: 48 h, 2 days, freshly hatched larvae, read-out: Larval mortality in comparison with untreated controls
Protocol: (§1) If not otherwise specified, the test solutions are prepared as follows: The active compound is dissolved at the desired concentration in a mixture of 1:1 (vol:vol) distilled water: acteone. The test solution is prepared at the day of use. Test solutions are prepared in general at concentrations of 2500 ppm, 1415 ppm and 800 ppm (wt/vol).
For evaluating control of yellow fever mosquito (Aedes aegypti) the test unit consisted of 96-well-microtiter plates containing 200 µl of tap water per well and 5-15 freshly hatched A. aegypti larvae. The active compounds were formulated using a solution containing 75% (v/v) water and 25% (v/v) DMSO. Different concentrations of formulated compounds or mixtures were sprayed onto the […] at 2.5 µl, using a custom built micro atomizer, at two replications. After application, microtiter plates were incubated at 28 + 1° C., 80 + 5% RH for 2 days. Larval mortality was then visually assessed.

[2] = tested on: Anthonomus grandis; test: Boll weevil (Anthonomus grandis) microtiter diet test; details: 120 h, read-out: Egg and larval mortality in comparison with untreated controls
Protocol: as §1
(§2) For evaluating control of boll weevil (Anthonomus grandis) the test unit consisted of 96-well-microtiter plates containing an insect diet and 5-10 A. grandis eggs. The compounds were formulated using a solution containing 75% v/v water and 25% v/v DMSO. Different concentrations of formulated compounds were sprayed onto the insect diet at 5 µl, using a custom built micro atomizer, at two replications. After application, microtiter plates were incubated at about 25 ± 1° C. and about 75 ± 5% relative humidity for 5 days. Egg and larval mortality was then visually assessed.

[3] = tested on: Heliothis virescens; test: Tobacco budworm (Heliothis virescens) microtiter diet test; details: 120 h, read-out: Egg and larval mortality in comparison with untreated controls
Protocol: as §1
as §2, with “of tobacco budworm (Heliothis virescens)” for “of boll weevil (Anthonomus grandis)”, “and 15-25 H. virescens” for “and 5-10 A. grandis”, “at 10” for “at 5”, “about 28” for “about 25”, “about 80” for “about 75”

[4] = tested on: Nezara viridula; test: Green soldier stink bug (Nezara viridula) soybean pod spray test; details: 120 h, 5 days, late 3rd instar, read-out: Percent mortality in comparison with untreated controls
Protocol: as §1
The active compound is dissolved at the desired concentration in a mixture of 1:1 (vol:vol) distilled water: aceteone. Surfactant (Kinetic) is added at a rate of 0.01% (vol/vol).The test solution is prepared at the day of use. Soybean pods are placed in 90 × 50 mm glass Petri dishes lined with moistened filter paper and inoculated with ten late 3rd instar N. viridula. Using a hand atomizer, an approximately 2 ml solution is sprayed into each Petri dish. Treated set-up is kept at about 25-26° C. and relative humidity of about 65-70%. Percent mortality is recorded after 5 days.

[5] = tested on: Megoura viciae; test: Vetch aphid (Megoura viciae) broad bean leaf disk test; details: foliar, 120 h, 5 days, adult aphids on treated leaf disks, read-out: Aphid mortality in comparison with untreated controls
Protocol: as §1
For evaluating control of vetch aphid (Megoura viciae) through contact or systemic means the test unit consisted of 24-well-microtiter plates containing broad bean leaf disks.
The compounds were formulated using a solution containing 75% v/v water and 25% v/v DMSO. Different concentrations of formulated compounds were sprayed onto the leaf disks at 2.5 µl, using a custom built micro atomizer, at two replications. After application, the leaf disks were air-dried and 5 - 8 adult aphids placed on the leaf disks inside the microtiter plate wells. The aphids were then allowed to suck on the treated leaf disks and incubated at about 23 ± 1° C. and about 50 ± 5% relative humidity for 5 days. Aphid mortality and fecundity was then visually assessed.

[6] = tested on: Myzus persicae; test: Green peach aphid (Myzus persicae) systemic artificial diet test; details: 72 h, read-out: Aphid mortality in comparison with untreated controls
Protocol: as §1
For evaluating control of green peach aphid (Myzus persicae) through systemic means the test unit consisted of 96-well-microtiter plates containing liquid artificial diet under an artificial membrane. The compounds were formulated using a solution containing 75% v/v water and 25% v/v DMSO. Different concentrations of formulated compounds were pipetted into the aphid diet, using a custom built pipetter, at two replications. After application, 5 - 8 adult aphids were placed on the artificial membrane inside the microtiter plate wells. The aphids were then allowed to suck on the treated aphid diet and incubated at about 23 ± 1° C. and about 50 ± 5 % relative humidity for 3 days. Aphid mortality and fecundity was then visually assessed.

[7] = tested on: Trialeurodes vaporariorum; test: Greenhouse whitefly (Trialeurodes vaporariorum) egg plant leaf disk test; details: foliar, 144 h, 6 days, read-out: Mortality of hatched crawlers in comparison with untreated controls
Protocol: as §1
For evaluating control of Greenhouse Whitefly (Trialeurodes vaporariorum) the test unit consisted of 96-well-microtiter plates containing a leaf disk of egg plant leaf disk with white fly eggs. The compounds or mixtures were formulated using a solution containing 75% water and 25% DMSO. Different concentrations of formulated were sprayed onto the insect diet at 2.5 µl, using a custom built micro atomizer, at two replications. After application, microtiter plates were incubated at 23 ± 1° C., 65 ± 5% RH for 6 days. Mortality of hatched crawlers was then visually assessed.

[8] = 3 days, adult aphids on treated diet
[9] = 800 ppm, 3 days, adult aphids on treated diet

CCS(=O)(=O)c1cc(/C=N/OC)cnc1-c1cn2c(=O)n(C)c(C(F)(F)F)cc2n1 [Compound C-1]
> 75%: mortality at 800 ppm [1] | mortality at 2500 ppm ([2]; 5 days) | mortality at 2500 ppm ([3]; 5 days) | mortality at 800 ppm [4] | mortality at 2500 ppm [5] | mortality at 2500 ppm [6, 8]

CCS(=O)(=O)c1cc(/C=N/O)cnc1-c1cn2c(=O)n(C)c(C(F)(F)F)cc2n1 [Compound C-2]
> 75%: mortality at 2500 ppm ([2]; 5 days) | mortality at 2500 ppm ([3]; 5 days) | mortality at 2500 ppm [6, 8]

CCS(=O)(=O)c1cc(/C=N/OCC(F)(F)F)cnc1-c1cn2c(=O)n(C)c(C(F)(F)F)cc2n1 [Compound C-3, 2-[3-ethylsulfonyl-5-[(E)-2,2,2-trifluoroethoxyiminomethyl]-2-pyridyl]-6-methyl-7-(trifluoromethyl)imidazo[1,2-c]pyrimidin-5-one]
> 75%: mortality at 800 ppm [1] | mortality at 2500 ppm ([2]; 5 days) | mortality at 2500 ppm ([3]; 5 days) | mortality at 800 ppm [4] | mortality at 2500 ppm [5] | mortality at 2500 ppm [6, 8]

CCS(=O)(=O)c1cc(C(C)(C)C#N)cnc1-c1cn2c(=O)n(C3CC3)c(C(F)(F)F)cc2n1 [Compound C-4]
> 75%: mortality at 800 ppm [1] | mortality at 2500 ppm ([2]; 5 days) | mortality at 2500 ppm ([3]; 5 days) | mortality at 800 ppm [4] | mortality at 2500 ppm [5] | mortality at 800 ppm [6, 9] | mortality at 2500 ppm [6, 8] | mortality at 800 ppm [7] | mortality at 2500 ppm [7]

CCS(=O)(=O)c1cc(C(C)(C)C#N)cnc1-c1cn2c(=O)n(C)c(C(F)(F)F)cc2n1 [Compound C-5, 2-[5-ethylsulfonyl-6-[6-methyl-5-oxo-7-(trifluoromethyl)imidazo[1,2-c]pyrimidin-2-yl]-3-pyridyl]-2-methyl-propanenitrile]
> 75%: mortality at 2500 ppm ([2]; 5 days) | mortality at 2500 ppm ([3]; 5 days) | mortality at 800 ppm [4] | mortality at 2500 ppm [6, 8] | mortality at 2500 ppm [7]

CCS(=O)(=O)c1cc(C2(C#N)CC2)cnc1-c1cn2c(=O)n(C3CC3)c(C(F)(F)F)cc2n1 [Compound C-6, 1-[6-[6-cyclopropyl-5-oxo-7-(trifluoromethyl)imidazo[1,2-c]pyrimidin-2-yl]-5-ethylsulfonyl-3-pyridyl]cyclopropanecarbonitrile]
> 75%: mortality at 800 ppm [1] | mortality at 800 ppm ([2]; 800 ppm, 5 days) | mortality at 800 ppm ([3]; 800 ppm, 5 days) | mortality at 800 ppm [4] | mortality at 800 ppm [7]

CCS(=O)(=O)c1cc(C(C)(C)C#N)cnc1-c1cn2c(=O)n(CC3CC3)c(C(F)(F)F)cc2n1 [Compound C-7]
> 75%: mortality at 800 ppm [1] | mortality at 800 ppm ([2]; 800 ppm, 5 days) | mortality at 800 ppm ([3]; 800 ppm, 5 days) | mortality at 800 ppm [4] | mortality at 800 ppm [6, 9]

CCS(=O)(=O)c1cc(/C(C#N)=N/O)cnc1-c1cn2c(=O)n(C3CC3)c(C(F)(F)F)cc2n1 [Compound C-8, (2Z)-2-[6-[6-cyclopropyl-5-oxo-7-(trifluoromethyl)imidazo[1,2-c]pyrimidin-2-yl]-5-ethylsulfonyl-3-pyridyl]-2-hydroxyimino-acetonitrile]
> 75%: mortality at 800 ppm [6, 9]

CCS(=O)(=O)c1cc(/C(C#N)=N/OC)cnc1-c1cn2c(=O)n(C3CC3)c(C(F)(F)F)cc2n1 [Compound C-9]
> 75%: mortality at 800 ppm [1] | mortality at 800 ppm ([2]; 800 ppm, 5 days) | mortality at 800 ppm ([3]; 800 ppm, 5 days) | mortality at 800 ppm [4] | mortality at 800 ppm [6, 9]

CCS(=O)(=O)c1cc(/C(C#N)=N/OCC(F)(F)F)cnc1-c1cn2c(=O)n(C3CC3)c(C(F)(F)F)cc2n1 [Compound C-10]
> 75%: mortality at 800 ppm [1] | mortality at 800 ppm ([2]; 800 ppm, 5 days) | mortality at 800 ppm ([3]; 800 ppm, 5 days) | mortality at 800 ppm [4] | mortality at 800 ppm [6, 9]

CCS(=O)(=O)c1cc(/C(C#N)=N/OCC2CC2)cnc1-c1cn2c(=O)n(C3CC3)c(C(F)(F)F)cc2n1 [Compound C-11]
> 75%: mortality at 800 ppm [1] | mortality at 800 ppm ([2]; 800 ppm, 5 days) | mortality at 800 ppm ([3]; 800 ppm, 5 days) | mortality at 800 ppm [4] | mortality at 800 ppm [6, 9] | mortality at 800 ppm [7]

CCS(=O)(=O)c1cc(/C(C#N)=N/OCC#N)cnc1-c1cn2c(=O)n(C3CC3)c(C(F)(F)F)cc2n1 [Compound C-12]
> 75%: mortality at 800 ppm [1] | mortality at 800 ppm ([2]; 800 ppm, 5 days) | mortality at 800 ppm [6, 9]

CCS(=O)(=O)c1cc(C2=NOC3(CCCC3)C2)cnc1-c1cn2c(=O)n(C3CC3)c(C(F)(F)F)cc2n1 [Compound C-13, 6-cyclopropyl-2-[3-ethylsulfonyl-5-(1-oxa-2-azaspiro[4.4]non-2-en-3-yl)-2-pyridyl]-7-(trifluoromethyl)imidazo[1,2-c]pyrimidin-5-one]
> 75%: mortality at 800 ppm [1] | mortality at 800 ppm [2] | mortality at 800 ppm [3] | mortality at 800 ppm [6] | mortality at 800 ppm [7]

CCO/N=C/c1cnc(-c2cn3c(=O)n(C4CC4)c(C(F)(F)F)cc3n2)c(S(=O)(=O)CC)c1 [Compound C-14]
> 75%: mortality at 800 ppm [1] | mortality at 800 ppm ([2]; 800 ppm, 5 days) | mortality at 800 ppm ([3]; 800 ppm, 5 days) | mortality at 800 ppm [4] | mortality at 800 ppm [6, 9]

CCS(=O)(=O)c1cc(/C=N/OC(C)C)cnc1-c1cn2c(=O)n(C3CC3)c(C(F)(F)F)cc2n1 [Compound C-15]
> 75%: mortality at 800 ppm ([2]; 800 ppm, 5 days) | mortality at 800 ppm ([3]; 800 ppm, 5 days) | mortality at 800 ppm [4] | mortality at 800 ppm [6, 9] | mortality at 800 ppm [7]

CCS(=O)(=O)c1cc(/C=N/OCC(F)(F)F)cnc1-c1cn2c(=O)n(C3CC3)c(C(F)(F)F)cc2n1 [Compound C-16]
> 75%: mortality at 800 ppm ([2]; 800 ppm, 5 days) | mortality at 800 ppm ([3]; 800 ppm, 5 days) | mortality at 800 ppm [6, 9] | mortality at 800 ppm [7]

CCS(=O)(=O)c1cc(/C=N/O)cnc1-c1cn2c(=O)n(C3CC3)c(C(F)(F)F)cc2n1 [Compound C-23, (3E)-6-[6-cyclopropyl-5-oxo-7-(trifluoromethyl)imidazo[1,2-c]pyrimidin-2-yl]-5-ethylsulfonyl-pyridine-3-carbaldehyde oxime]
> 75%: mortality at 800 ppm [4] | mortality at 800 ppm [6, 9]
